Test results taken from US12577235B2, “Crystalline form of CXCR2 antagonist and application thereof” (Shenzhen Optimum Biological Technology Co., Ltd, priority 2019, dated 2026).

Tests used:
CXCR2 = molecular target: T1, CXCR2 (Homo sapiens, UniProt P25025); assay: PathHunter CXCR2 β-arrestin cell assay (CXCL8 agonist, chemiluminescence); format: cell-based; conditions: listed as crystalline form A of the compound 1
T1 sequence (P25025 1-360): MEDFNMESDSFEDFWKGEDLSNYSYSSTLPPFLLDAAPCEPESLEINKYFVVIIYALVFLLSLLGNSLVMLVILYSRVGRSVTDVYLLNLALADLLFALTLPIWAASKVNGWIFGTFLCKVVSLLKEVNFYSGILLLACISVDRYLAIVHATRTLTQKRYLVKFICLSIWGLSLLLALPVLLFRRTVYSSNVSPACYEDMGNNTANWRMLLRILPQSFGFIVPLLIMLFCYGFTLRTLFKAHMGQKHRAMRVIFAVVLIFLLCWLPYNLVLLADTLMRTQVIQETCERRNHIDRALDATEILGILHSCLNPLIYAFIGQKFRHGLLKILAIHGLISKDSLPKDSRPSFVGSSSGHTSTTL
Experimental: CXCR2 β-arrestin cells (DiscoverX) of PathHunter® were cultured in standard conditions and inoculated at 20 μL/well to a 384-well white microplate. Before testing, the cells were incubated at 37° C. for an appropriate period of time. The test compound was serially 3-fold diluted in DMSO to give 8 concentrations. Shortly before testing, the serially diluted test samples were further diluted with test buffer to 5 folds of the test concentration. 5 μL of further diluted test samples were added to the cells and the cells were incubated at 37° C. for 30 min. The concentration of vehicle was 1%. 5 μL of 6×EC80 agonist (CXCL8) buffer was then added to the cells, and the cells were incubated at 37° C. for 90 min. The test signal was generated by adding 15 μL (50% v/v) of PathHunter detection mixture reagent in one portion and subsequently incubating the cells for 1 h. The chemiluminescence signal of the microplate was read by a PerkinElmer Envision™ instrument. The biological activities of the test compounds were analyzed by CBIS data analysis kit (ChemInnovation, CA), shown as IC50 values.

[1] = test system: rat COPD model induced by smoking combined with lipopolysaccharide; assay: Anti-inflammation effect in rat COPD model induced by smoking combined with lipopolysaccharide; format: in vivo, SD rats
Experimental: Modeling: the animal model was prepared by exposing the rats to cigarette smoke once daily for 14 days. The rats were smoked for 90 min per day in 2 portions with a break of 10 min. 18 Marlboro cigarettes (with a tar content of 11 mg) were given each time. LPS was administered dropwise via airway at 200 μg/rat once weekly. The administration dropwise was performed on days 6 and 13 of smoke exposure (on the day of LPS administration dropwise, only LPS was administered dropwise for modeling without smoke exposure). • 2. Administration: an aqueous solution of 1% DMSO/20% PEG400/79% (HP-b-CD) was used as the vehicle, and the drugs were administrated intragastrically everyday at a volume of 5 mL/kg for 2 weeks. • 3. Endpoint: On day 15, pulmonary function test, sample collection, inflammatory cell count in bronchoalveolar lavage fluid, pathological analysis, and lung tissue MPO and MMP9 assay were carried out. Procedures of Pulmonary Function Test:
After the last smoking and modeling were finished, pulmonary function was tested for each group of animals on the second day, and pulmonary resistance and compliance were detected under stimulation of methacholine chloride at different doses. The animals were anesthetized by intraperitoneal injection with […] of 25% urethane. After the animals were deeply anesthetized, airway intubation was performed by separating airways, and meanwhile, jugular veins were separated. After breathing stably, the animals were put into a plethysmograph. Drug administration pipelines were inserted into the separated jugular veins. After the animals were in rest state for 1-2 min and the breathing curves were stable, then detection was started. Rats were administered with methacholine chloride at doses of 0, 0.0083, 0.025, 0.075, 0.225, 0.675 mg/kg by jugular vein intubation. The increase in airway resistance and decrease in pulmonary compliance were observed after each administration. After 1-2 min, the parameters returned to near the baseline of the previous concentration of methacholine chloride, and methacholine chloride of the next concentration was injected. After the detection was finished, subsequent alveolar lavage and sample collection were performed.
After the pulmonary function test was finished, the rats were sacrificed by cervical dislocation. After the animals were confirmed dead, the lungs were carefully separated, a lavage syringe was inserted into the main trachea and fixed with 2-0 silk thread. The right lung was ligated. 5 mL of low-temperature normal saline was slowly injected through the lavage syringe. The normal saline was slowly extracted after confirming that the normal saline was injected into the left lung. The operation was repeated twice. By the three lavages, a total of 15 mL of normal saline was injected for lavage. The obtained BALF was injected into a 15 mL centrifuge tube and preserved in a storage box at 4° C. for subsequent BALF cells counting.
After BALF was collected, the right lung which was not infused was taken off and weighted. The two upper lobes of the right lung were put into a cryopreservation tube, frozen in a freezer at −80° C. for later use. Lower lobe tissues were fixed in formalin.
1 mL of homogenously mixed BALF was added into 1 mL of a solution of 1% glacial acetic acid in normal saline. Cells were counted using a hemocytometer. The remaining lavage fluid was centrifuged at 1500 r/min for 10 min at 4° C. to give a cell mass. The cells were resuspended in 200 μL of normal saline, uniformly coated on a glass slide and stained by Wright-Giemsa stain. Macrophages, neutrophils and lymphocytes in a total of 200 cells were counted under a microscope, and the proportions of the cells was calculated. For lavage fluid collection, animals failing the lavage fluid collection were not summarized. […]

[2] = 10 mg/kg vs Danirixin at 30 mg/kg
[3] = 10 mg/kg, methacholine 0.025 mg/kg
[4] = 30 mg/kg vs Danirixin at 30 mg/kg
[5] = at various doses (3, 10, 30 mpk)

Structure (SMILES): O=C(Nc1ccc(Cl)c(S(=O)(=O)[C@H]2CCCNC2)c1O)N[C@@H]1CCCc2cc(C(F)(F)F)oc21 [crystalline form A]
- Antagonism against the CXCR2 receptor (in words) (CXCR2): significant inhibitory effect
- Pulmonary function improvement and anti-inflammatory effects (summary) ([1]; 3 mg/kg): significant pulmonary function improvement and anti-inflammatory effects
- Pulmonary resistance, effect relative to Danirixin ([1]; 3 mg/kg and 10 mg/kg vs Danirixin at 30 mg/kg): comparable to that of Danirixin
- MPO content in lung tissues, effect relative to Danirixin ([1]; 3 mg/kg vs Danirixin at 30 mg/kg): comparable effect
- Pulmonary resistance, methacholine-induced pulmonary function test ([1]; 3 mg/kg, methacholine 0.025 mg/kg): significant effects in improving the pulmonary resistance
- Lung tissue pathology score, effect relative to Danirixin [1, 2]: comparable of that of Danirixin
- MMP9 content in lung tissue, effect relative to Danirixin [1, 2]: comparable of that of Danirixin
- Number of leukocytes in BALF, effect relative to Danirixin [1, 2]: comparable effect
- Number of neutrophils in BALF, effect relative to Danirixin [1, 2]: comparable effect
- Pulmonary compliance, effect relative to Danirixin [1, 2]: comparable to that of Danirixin
- Pulmonary compliance, methacholine-induced pulmonary function test [1, 3]: significant effect in improving the pulmonary compliance
- Pulmonary resistance, methacholine-induced pulmonary function test [1, 3]: significant effects in improving the pulmonary resistance
- Lung tissue pathology score, effect relative to Danirixin [1, 4]: superior effect
- MMP9 content in lung tissue, effect relative to Danirixin [1, 4]: superior effect
- Lung tissue pathology score, dose dependence ([1]; 3, 10, 30 mpk): improved the pathology score in a dose-dependent manner
- MMP9 content in lung tissue, dose dependence ([1]; 3, 10, 30 mpk): reduced the MMP9 content in lung tissue in a dose-dependent manner
- Number of neutrophils in BALF, dose dependence ([1]; 3, 10, 30 mpk): reduced the number of neutrophils in a dose-dependent manner
- Anti-inflammatory effect (summary) ([1]; Danirixin 30 mpk, crystalline form A 3-30 mpk): significant anti-inflammatory effect
- Pharmacodynamic effect compared with Danirixin ([1]; at a lower dose than Danirixin): equivalent pharmacodynamic effect
- Pharmacodynamic effect compared with Danirixin ([1]; at the same dose as Danirixin): superior pharmacodynamic effect
- MPO content in lung tissues [1, 5]: significantly reduce the MPO content
- Number of leukocytes in BALF [1, 5]: significantly reduce the number of leukocytes
- Number of neutrophils in BALF ([1]; down to 3 mg/kg): significant effect
- Lung tissue pathology score ([1]; down to 10 mg/kg): significant effect
- MMP9 content in lung tissue ([1]; down to 10 mg/kg): significant effect
